# Laboratory results published in US10294202B2, “Pyrrolidinones as herbicides” (FMC Corporation, priority 2013, dated 2019).
# How the values were obtained:
# barnyardgrass [1] = assay: Test A pre-/postemergence herbicide test; type: in vivo, Echinochloa crus-galli; conditions: for Plant response rating, Barnyardgrass: 0 to 100 scale
# Summary of the method: (§1)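 Both application timings used compounds in a non-phytotoxic solvent plus surfactant. Pre-emergence: soil sprayed directly after seeding into loam/sand. Post-emergence: foliage of 2–10 cm seedlings (1–2 leaves) sprayed. Injury rated ~10 days later, 0–100.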
# pigweed = assay: Test A pre-/postemergence herbicide test; type: in vivo, Amaranthus retroflexus; conditions: for Plant response rating, Pigweed: 0 to 100 scale
# Summary of the method: as §1
# corn [2] = assay: Test A pre-/postemergence herbicide test; type: in vivo, Zea mays; conditions: Postemergence; for Plant response rating, Corn: 125 g ai/ha, 0 to 100 scale, 0 is no effect, 100 is complete control; for Corn plant response rating (0 to 100 scale, 0 is no effect, 100 is complete control): 500 g ai/ha
# Summary of the method: as §1
# rice = assay: Test B flooded paddy test; type: in vivo, Oryza sativa; conditions: 500 g ai/ha, Flood; scale of 0 to 100 where 0 is no effect and 100 is complete control
# Summary of the method: (§2)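 Paddy-water application at a 3 cm flood, young plants having two leaves. Water level maintained; greenhouse, 13–15 days; visual 0–100 control rating.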
# ducksalad = assay: Test B flooded paddy test; type: in vivo, Heteranthera limosa; conditions: 500 g ai/ha, Flood; scale of 0 to 100 where 0 is no effect and 100 is complete control
# Summary of the method: as §2
# barnyardgrass [3] = assay: Test B flooded paddy test; type: in vivo, Echinochloa crus-galli; conditions: 500 g ai/ha, Flood; scale of 0 to 100 where 0 is no effect and 100 is complete control
# Summary of the method: as §2
# corn [4] = assay: Test C pre-/postemergence herbicide test; type: in vivo, Zea mays
# Summary of the method: (§3)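 Herbicidal effect was judged by eye 13 to 15 days after treatment in the greenhouse, using a 0–100 scale against controls. Chemicals in a non-phytotoxic solvent with surfactant were sprayed onto planted loam/sand soil or onto plants 2 to 18 cm tall in a peat-based growing medium.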
# foxtail, giant = assay: Test C pre-/postemergence herbicide test; type: in vivo, Setaria faberii
# Summary of the method: as §3
# nutsedge, yellow = assay: Test C pre-/postemergence herbicide test; type: in vivo, Cyperus esculentus
# Summary of the method: as §3
# soybean = assay: Test C pre-/postemergence herbicide test; type: in vivo, Glycine max
# Summary of the method: as §3
# barnyardgrass [5] = assay: Test C pre-/postemergence herbicide test; type: in vivo, Echinochloa crus-galli; conditions: for Barnyardgrass plant response rating: scale 0 to 100, 0 is no effect and 100 is complete control
# Summary of the method: as §3
# oilseed rape = assay: Test C pre-/postemergence herbicide test; type: in vivo, Brassica napus
# Summary of the method: as §3
# [6] = 125 g ai/ha, visual rating, 0 no effect, 100 complete control, approximately 10 days, preemergence
# [7] = Postemergence, 125 g ai/ha, 0 is no effect, 100 is complete control
# [8] = preemergence, 500 g ai/ha, 0 is no effect and 100 is complete control
# [9] = Postemergence, 31 g ai/ha, scale 0 to 100 (0 no effect, 100 complete control)
# [10] = Postemergence, 62 g ai/ha, scale 0 (no effect) to 100 (complete control)
# [11] = Postemergence, 125 g ai/ha, scale 0 to 100 (0 no effect, 100 complete control)
# [12] = Postemergence, 250 g ai/ha, scale 0 to 100 (0 no effect, 100 complete control)
# [13] = Preemergence, 31 g ai/ha, scale 0 to 100, 0 is no effect and 100 is complete control
# [14] = Preemergence, 62 g ai/ha, scale 0 to 100 (0 no effect, 100 complete control)
# [15] = Preemergence, 125 g ai/ha, scale 0 to 100 (0 no effect, 100 complete control)
# [16] = Preemergence, 62 g ai/ha, scale 0 to 100
smiles,measurement,setting,value
O=C1NCC(c2ccc(C(F)(F)F)cc2)C1C(=O)Nc1ccc(F)c(F)c1F (centres unmarked) [Compound 232],"Plant response rating, Barnyardgrass",barnyardgrass [1]; [6],90
same,"Plant response rating, Barnyardgrass",barnyardgrass [1]; [7],80
same,"Barnyardgrass plant response rating (0 to 100 scale, 0 is no effect, 100 is complete control)","barnyardgrass [1]; Postemergence, 500 g ai/ha",90
same,"Plant response rating, Barnyardgrass",barnyardgrass [1]; [8],90
same,"Plant response rating, Pigweed",pigweed; [6],50
same,"Plant response rating, Pigweed",pigweed; [7],80
same,"Pigweed plant response rating (0 to 100 scale, 0 is no effect, 100 is complete control)","pigweed; Postemergence, 500 g ai/ha",90
same,"Plant response rating, Pigweed",pigweed; [8],60
same,"Plant response rating, Corn",corn [2],80
same,"Corn plant response rating (0 to 100 scale, 0 is no effect, 100 is complete control)",corn [2],80
same,"Plant response rating, Rice",rice,20
same,"Plant response rating, Ducksalad",ducksalad,100
same,"Plant response rating, Barnyardgrass",barnyardgrass [3],85
same,"Plant response rating, Corn",corn [4]; [9],0
same,"Plant response rating, Corn",corn [4]; [10],0
same,"Plant response rating, Corn",corn [4]; [11],0
same,"Plant response rating, Corn",corn [4]; [12],0
same,Corn plant response rating,corn [4]; [13],0
same,Corn plant response rating,corn [4]; [14],35
same,"Plant response rating, Corn",corn [4]; [15],70
same,"Plant response rating (scale of 0 to 100), Corn","corn [4]; Preemergence, 250 g ai/ha",75
same,"Plant response rating, Foxtail, Giant","foxtail, giant; [9]",0
same,"Plant response rating, Foxtail, Giant","foxtail, giant; [10]",5
same,"Plant response rating, Foxtail, Giant","foxtail, giant; [11]",15
same,"Plant response rating, Foxtail, Giant","foxtail, giant; [12]",70
same,"Foxtail, Giant plant response rating","foxtail, giant; [13]",85
same,"Foxtail, Giant plant response rating","foxtail, giant; [14]",90
same,"Plant response rating, Foxtail, Giant","foxtail, giant; [15]",90
same,"Plant response rating (scale of 0 to 100), Foxtail, Giant","foxtail, giant; Preemergence, 250 g ai/ha",95
same,"Plant response rating, Nutsedge, Yellow","nutsedge, yellow; [9]",0
same,"Plant response rating, Nutsedge, Yellow","nutsedge, yellow; [10]",0
same,"Plant response rating, Nutsedge, Yellow","nutsedge, yellow; [11]",5
same,"Plant response rating, Nutsedge, Yellow","nutsedge, yellow; [12]",5
same,"Nutsedge, Yellow plant response rating","nutsedge, yellow; [13]",0
same,"Nutsedge, Yellow plant response rating","nutsedge, yellow; [14]",0
same,"Plant response rating, Nutsedge, Yellow","nutsedge, yellow; [15]",0
same,"Plant response rating (scale of 0 to 100), Nutsedge, Yellow","nutsedge, yellow; Preemergence, 250 g ai/ha",100
same,"Plant response rating, Soybean",soybean; [9],0
same,"Plant response rating, Soybean",soybean; [10],10
same,"Plant response rating, Soybean",soybean; [11],10
same,"Plant response rating, Soybean",soybean; [12],20
same,Soybean plant response rating,soybean; [13],0
same,Soybean plant response rating,soybean; [14],0
same,"Plant response rating, Soybean",soybean; [15],0
same,"Plant response rating (scale of 0 to 100), Soybean","soybean; Preemergence, 250 g ai/ha",5
same,"Plant response rating, Barnyardgrass",barnyardgrass [5]; [9],5
same,"Plant response rating, Barnyardgrass",barnyardgrass [5]; [10],55
same,"Plant response rating, Barnyardgrass",barnyardgrass [5]; [11],70
same,"Plant response rating, Barnyardgrass",barnyardgrass [5]; [12],75
same,Barnyardgrass plant response rating,"barnyardgrass [5]; Preemergence, 31 g ai/ha",85
same,"Plant response rating, Barnyardgrass",barnyardgrass [5]; [16],85
same,"Plant response rating, Barnyardgrass",barnyardgrass [5]; [15],95
same,"Plant response rating (scale of 0 to 100; 0 is no effect, 100 is complete control), Barnyardgrass","barnyardgrass [5]; Preemergence, 250 g ai/ha",95
same,"Plant response rating, Oilseed Rape",oilseed rape; [9],0
same,"Plant response rating, Oilseed Rape",oilseed rape; [10],50
same,"Plant response rating, Oilseed Rape",oilseed rape; [11],65
same,"Plant response rating, Oilseed Rape",oilseed rape; [12],40
same,Oilseed Rape plant response rating,oilseed rape; [13],30
same,Oilseed Rape plant response rating,oilseed rape; [14],30
same,"Plant response rating, Oilseed Rape",oilseed rape; [15],50
same,"Plant response rating (scale of 0 to 100), Oilseed Rape","oilseed rape; Preemergence, 250 g ai/ha",85
O=C1NCC(c2ccc(C(F)(F)F)cc2)C1C(=O)Nc1ccccc1Cl (centres unmarked) [Compound 233],"Plant response rating, Barnyardgrass",barnyardgrass [1]; [6],80
same,"Plant response rating, Barnyardgrass",barnyardgrass [1]; [7],70
same,"Barnyardgrass plant response rating (0 to 100 scale, 0 is no effect, 100 is complete control)","barnyardgrass [1]; Postemergence, 500 g ai/ha",90
same,"Plant response rating, Barnyardgrass",barnyardgrass [1]; [8],90
same,"Plant response rating, Pigweed",pigweed; [6],30
same,"Plant response rating, Pigweed",pigweed; [7],0
same,"Pigweed plant response rating (0 to 100 scale, 0 is no effect, 100 is complete control)","pigweed; Postemergence, 500 g ai/ha",20
same,"Plant response rating, Pigweed",pigweed; [8],30
same,"Plant response rating, Corn",corn [2],20
same,"Corn plant response rating (0 to 100 scale, 0 is no effect, 100 is complete control)",corn [2],20
same,"Plant response rating, Rice",rice,0
same,"Plant response rating, Ducksalad",ducksalad,100
same,"Plant response rating, Barnyardgrass",barnyardgrass [3],60
same,Corn plant response rating,corn [4]; [13],0
same,Corn plant response rating,corn [4]; [14],0
same,"Plant response rating, Corn",corn [4]; [15],10
same,"Plant response rating (scale of 0 to 100), Corn","corn [4]; Preemergence, 250 g ai/ha",35
same,"Foxtail, Giant plant response rating","foxtail, giant; [13]",85
same,"Foxtail, Giant plant response rating","foxtail, giant; [14]",90
same,"Plant response rating, Foxtail, Giant","foxtail, giant; [15]",90
same,"Plant response rating (scale of 0 to 100), Foxtail, Giant","foxtail, giant; Preemergence, 250 g ai/ha",95
same,"Nutsedge, Yellow plant response rating","nutsedge, yellow; [13]",0
same,"Nutsedge, Yellow plant response rating","nutsedge, yellow; [14]",0
same,"Plant response rating, Nutsedge, Yellow","nutsedge, yellow; [15]",0
same,"Plant response rating (scale of 0 to 100), Nutsedge, Yellow","nutsedge, yellow; Preemergence, 250 g ai/ha",0
same,Soybean plant response rating,soybean; [13],0
same,Soybean plant response rating,soybean; [14],0
same,"Plant response rating, Soybean",soybean; [15],5
same,"Plant response rating (scale of 0 to 100), Soybean","soybean; Preemergence, 250 g ai/ha",0
same,Barnyardgrass plant response rating,"barnyardgrass [5]; Preemergence, 31 g ai/ha",80
same,"Plant response rating, Barnyardgrass",barnyardgrass [5]; [16],75
same,"Plant response rating, Barnyardgrass",barnyardgrass [5]; [15],85
same,"Plant response rating (scale of 0 to 100; 0 is no effect, 100 is complete control), Barnyardgrass","barnyardgrass [5]; Preemergence, 250 g ai/ha",90
same,Oilseed Rape plant response rating,oilseed rape; [13],0
same,Oilseed Rape plant response rating,oilseed rape; [14],40
same,"Plant response rating, Oilseed Rape",oilseed rape; [15],80
same,"Plant response rating (scale of 0 to 100), Oilseed Rape","oilseed rape; Preemergence, 250 g ai/ha",85
